# Patent US20230331715A1, “SPIRO[3.3]HEPTANE DERIVATIVES FOR THE TREATMENT AND PROPHYLAXIS OF HEPATITIS B VIRUS INFECTION” (priority 2020, published 2023)
# Where two headings read alike, the source gives them in different places.
# Tests used:
# Type in all cases: cell-based
# [1] = Cytotoxicity in PHH natural infection assay (Cell Counting Kit-8); details: human; HBV-infected PHH, CCK8, compound refreshed two times with 72-hour interval
# Description: (§1) Detailed procedures regarding primary human hepatocyte (PHH) HBV natural infection assay are described as below. One tube of frozen PHH (10 million cells) is thawed in 37° C. water bath and then transferred to 20 mL of PHH thawing medium (Sigma, InVitroGRO HT Medium, Cat. S03319) with gently mixing. The cells were then centrifuged at […] for 5 min, the supernatant was discarded and the tube was refilled with 25 mL of PHH plating medium (Sigma, InVitroGRO CP Medium, Cat. S03317). The tube was shaken very gently to re-suspend all cells, and then 50 µl of cells were transferred to each well 384-well collagen I coated plate with appropriate liquid handling equipment, e.g. Integra VIAFLO384 or Agilent Bravo. The cells were then cultured for 24 hours in a cell incubator. For HBV infection, after PHH attachment on the culture plate, the plating medium was removed and replenished with PHH culture medium containing HBV virus. The PHH culture medium was prepared with Dulbecco’s Modified Eagle Medium (DMEM)/F12 (1: 1 in volume ratio) containing 10% fetal bovine serum (Gibco, Cat. 10099141), 5 ng/mL human epidermal growth factor (Gibco, Cat.PHG0311L), 20 ng/mL dexamethasone (Sigma, Cat.D4902-100mg), 250 ng/mL human recombinant insulin (Gibco, Cat.41400045) and 100 U/mL penicillin. HBV virus at 200 genome equivalent (GE) per cell with 4% PEG8000 (Sigma, Cat.P1458) containing culture medium were added to the PHH culture medium for infection. The cells were then cultured for 24 hours in cell incubator. Then the cell culture supernatant was removed. The HBV-infected PHH were cultured with sandwich culture method with PHH culture medium containing 1% DMSO and 0.25 mg/mL matrix gel for 72 hours. The supernatant was then refreshed with PHH culture medium containing different concentrations of testing compounds for two times with 72-hour interval. At the end of treatment, the supernatant was collected for viral markers measurements, including HBsAg, HBeAg, HBV DNA and cytotoxicity. HBsAg and HBeAg were detected using alphalisa method using their specific antibodies. For HBV DNA detection, HBV DNA Quantitative Fluorescence Diagnostic Kit (Sansure Biotech Inc.) was used following the manufacture’s protocol. Cytotoxicity was determined using Cell Counting Kit-8 (CCK8, Dojindo Molecular Technologies, Inc.).
# HBeAg = assay: PHH HBV natural infection assay, HBeAg (alphalisa)
# Description: as §1
# (§2) The compounds of the present invention were tested for their capacity to inhibit HBsAg and HBeAg as described herein.
# HBsAg = assay: PHH HBV natural infection assay, HBsAg (alphalisa)
# Description: as §1, §2
# [2] = Hepatitis B virus, 72 h, read-out: HBeAg IC50, HBV-infected PHH, culture supernatant, compound refreshed two times with 72-hour interval, alphalisa
# [3] = Hepatitis B virus, 72 h, read-out: HBsAg IC50, HBV-infected PHH, culture supernatant, compound refreshed two times with 72-hour interval, alphalisa
# [4] = read-out: HBeAg IC50, HBV-infected PHH, culture supernatant, compound refreshed two times with 72-hour interval, alphalisa
# [5] = read-out: HBsAg IC50, HBV-infected PHH, culture supernatant, compound refreshed two times with 72-hour interval, alphalisa
Compound,CC50 at 144 h [1],IC50 (HBeAg; [2]),IC50 (HBsAg; [3]),IC50 (HBeAg; [4]),IC50 (HBsAg; [5])
"CCN1CC(C(=O)NC2CC3(C2)CC(c2nc4cc(Cl)ccc4s2)C3)CC1=O (stereo not drawn) [Example 31, N-[6-(5-chloro-1,3-benzothiazol-2-yl)spiro[3.3]heptan-2-yl]-1-ethyl-5-oxo-pyrrolidine-3-carboxamide]",> 10 µM,8.29 µM,9.58 µM,–,–
"NC(=O)Nc1cc(C(=O)NC2CC3(C2)CC(c2nc4cc(Cl)ccc4s2)C3)ccn1 (stereo not drawn) [Example 10, N-[6-(5-chloro-1,3-benzothiazol-2-yl)spiro[3.3]heptan-2-yl]-2-ureido-pyridine-4-carboxamide]",> 50 µM,8.43 µM,7.7 µM,–,–
"CS(=O)(=O)Cc1cc(C(=O)NC2CC3(C2)CC(c2nc4cc(Cl)ccc4s2)C3)ccn1 (stereo not drawn) [Example 7, N-[6-(5-chloro-1,3-benzothiazol-2-yl)spiro[3.3]heptan-2-yl]-2-(methylsulfonylmethyl)pyridine-4-carboxamide]",> 10 µM,3.09 µM,3.33 µM,–,–
"[H][C@]1(NC(=O)c2cc(C(N)=O)ncn2)C[C@]2(C1)C[C@]([H])(c1nc3cc(Cl)ccc3s1)C2 (single isomer, unassigned) [Example 56-b, (Ra)-N6-[6-(5-chloro-1,3-benzothiazol-2-yl)spiro[3.3]heptan-2-yl]pyrimidine-4,6-dicarboxamide]",> 10 µM,–,–,2.27 µM,3.3 µM
"CCS(=O)(=O)c1cc(C(=O)NC2CC3(C2)CC(c2nc4cc(Cl)ccc4s2)C3)ccn1 (stereo not drawn) [Example 9, N-[6-(5-chloro-1,3-benzothiazol-2-yl)spiro[3.3]heptan-2-yl]-2-ethylsulfonyl-pyridine-4-carboxamide]",13.4 µM,1.21 µM,1.35 µM,–,–
"O=C(NC1CC2(C1)CC(c1nc3cc(Cl)ccc3s1)C2)c1cccc(C(F)(F)F)c1 (stereo not drawn) [Example 1, N-[6-(5-chloro-1,3-benzothiazol-2-yl)spiro[3.3]heptan-2-yl]-3-(trifluoromethyl)benzamide]",> 10 µM,4.53 µM,6.55 µM,–,–
"N=S(=O)(c1cc(C(=O)NC2CC3(C2)CC(c2nc4cc(Cl)ccc4s2)C3)ccn1)C1CC1 (stereo not drawn) [Example 41, N-[6-(5-chloro-1,3-benzothiazol-2-yl)spiro[3.3]heptan-2-yl]-2-(cyclopropylsulfonimidoyl)pyridine-4-carboxamide]",> 10 µM,0.67 µM,0.9 µM,–,–
"O=C(NC1CC2(C1)CC(c1nc3cc(Cl)ccc3s1)C2)C1CCS(=O)(=O)C1 (stereo not drawn) [Example 26, N-[6-(5-chloro-1,3-benzothiazol-2-yl)spiro[3.3]heptan-2-yl]-1,1-dioxo-thiolane-3-carboxamide]",> 100 µM,1.18 µM,1.99 µM,–,–
"CN(C)c1cc(C(=O)NC2CC3(C2)CC(c2nc4cc(Cl)ccc4s2)C3)ccn1 (stereo not drawn) [Example 46, N-[6-(5-chloro-1,3-benzothiazol-2-yl)spiro[3.3]heptan-2-yl]-2-(dimethylamino)pyridine-4-carboxamide]",> 10 µM,3.35 µM,4.2 µM,–,–
"[H][C@]1(NC(=O)c2ccnc(S(C)(=O)=O)c2)C[C@@]2(C1)C[C@]([H])(c1nc3cc(Cl)ccc3s1)C2 (single isomer, unassigned) [Example 54-a, (Sa)-N-[6-(5-chloro-1,3-benzothiazol-2-yl)spiro[3.3]heptan-2-yl]-2-methylsulfonyl-pyridine-4-carboxamide]",> 10 µM,–,–,1.79 µM,2.46 µM
"O=C(NC1CC2(C1)CC(c1nc3ccc(Cl)cc3s1)C2)c1ccc(C(F)(F)F)o1 (stereo not drawn) [Example 15, N-[6-(6-chloro-1,3-benzothiazol-2-yl)spiro[3.3]heptan-2-yl]-5-(trifluoromethyl)furan-2-carboxamide]",> 100 µM,2.07 µM,2.96 µM,–,–
"CP(C)(=O)c1cccc(C(=O)NC2CC3(C2)CC(c2nc4cc(Cl)ccc4s2)C3)c1 (stereo not drawn) [Example 3, N-[6-(5-chloro-1,3-benzothiazol-2-yl)spiro[3.3]heptan-2-yl]-3-dimethylphosphoryl-benzamide]",> 10 µM,4.39 µM,6.37 µM,–,–
"CC(c1ccc(C(=O)NC2CC3(C2)CC(c2nc4cc(Cl)ccc4s2)C3)o1)S(C)(=O)=O (stereo not drawn) [Example 16, N-[6-(5-chloro-1,3-benzothiazol-2-yl)spiro[3.3]heptan-2-yl]-5-(1-methylsulfonylethyl)furan-2-carboxamide]",23.9 µM,1.92 µM,2.69 µM,–,–
"O=C1CCC(CC(=O)NC2CC3(C2)CC(c2nc4cc(Cl)ccc4s2)C3)N1 (stereo not drawn) [Example 33, N-[6-(5-chloro-1,3-benzothiazol-2-yl)spiro[3.3]heptan-2-yl]-2-(5-oxopyrrolidin-2-yl)acetamide]",> 10 µM,4.12 µM,4.08 µM,–,–
"O=C(NC1CC2(C1)CC(c1nc3cc(Cl)ccc3s1)C2)c1ccc(C(O)C(F)(F)F)o1 (stereo not drawn) [Example 18, N-[6-(5-chloro-1,3-benzothiazol-2-yl)spiro[3.3]heptan-2-yl]-5-(2,2,2-trifluoro-1-hydroxyethyl)furan-2-carboxamide]",> 10 µM,4.59 µM,5.52 µM,–,–
"O=C(NC1CC2(C1)CC(c1nc3cc(Cl)ccc3s1)C2)c1ccnc(NC2CC2)c1 (stereo not drawn) [Example 45, N-[6-(5-chloro-1,3-benzothiazol-2-yl)spiro[3.3]heptan-2-yl]-2-(cyclopropylamino)pyridine-4-carboxamide]",> 10 µM,5.18 µM,6.08 µM,–,–
"O=C(CC1CCCS1(=O)=O)NC1CC2(C1)CC(c1nc3cc(Cl)ccc3s1)C2 (stereo not drawn) [Example 29, N-[6-(5-chloro-1,3-benzothiazol-2-yl)spiro[3.3]heptan-2-yl]-2-(1,1-dioxothiolan-2-yl)acetamide]",> 10 µM,3.59 µM,4.74 µM,–,–
"CC(C)(c1ccc(C(=O)NC2CC3(C2)CC(c2nc4cc(Cl)ccc4s2)C3)o1)S(C)(=O)=O (stereo not drawn) [Example 17, N-[6-(5-chloro-1,3-benzothiazol-2-yl)spiro[3.3]heptan-2-yl]-5-(1-methyl-1-methylsulfonyl-ethyl)furan-2-carboxamide]",35.7 µM,1.6 µM,2.11 µM,–,–
"COc1cc(C(=O)NC2CC3(C2)CC(c2nc4cc(Cl)ccc4s2)C3)ccn1 (stereo not drawn) [Example 42, N-[6-(5-chloro-1,3-benzothiazol-2-yl)spiro[3.3]heptan-2-yl]-2-methoxy-pyridine-4-carboxamide]",> 10 µM,2.67 µM,3.12 µM,–,–
"O=C(NC1CC2(C1)CC(c1nc3cc(Cl)ccc3s1)C2)c1ccnc(S(=O)(=O)CC2CC2)c1 (stereo not drawn) [Example 39, N-[6-(5-chloro-1,3-benzothiazol-2-yl)spiro[3.3]heptan-2-yl]-2-(cyclopropylmethylsulfonyl)pyridine-4-carboxamide]",> 10 µM,0.34 µM,0.79 µM,–,–
"O=C(NC1CC2(C1)CC(c1nc3cc(Cl)ccc3s1)C2)c1ccc(S(=O)(=O)NC2CCC2)o1 (stereo not drawn) [Example 22, N-[6-(5-chloro-1,3-benzothiazol-2-yl)spiro[3.3]heptan-2-yl]-5-(cyclobutylsulfamoyl)furan-2-carboxamide]",21.9 µM,1 µM,1.39 µM,–,–
"CC(C)N(C)c1cc(C(=O)NC2CC3(C2)CC(c2nc4cc(Cl)ccc4s2)C3)ccn1 (stereo not drawn) [Example 49, N-[6-(5-chloro-1,3-benzothiazol-2-yl)spiro[3.3]heptan-2-yl]-2-[isopropyl(methyl)amino]pyridine-4-carboxamide]",> 10 µM,2.38 µM,3.14 µM,–,–
"CS(=O)(=O)c1cc(C(=O)NC2CC3(C2)CC(c2nc4cc(Cl)ccc4s2)C3)ccn1 (stereo not drawn) [Example 36, N-[6-(5-chloro-1,3-benzothiazol-2-yl)spiro[3.3]heptan-2-yl]-2-methylsulfonyl-pyridine-4-carboxamide]",> 50 µM,0.86 µM,1.08 µM,–,–
